The values below come from patent US20240408004A1, “COMPOSITIONS, DEVICES, AND METHODS FOR THE TREATMENT OF OVERDOSE AND REWARD-BASED DISORDERS” (priority 2018, published 2024).

One data set deals with rabbit eye. The following applies: concentrations of 25%; cited from earlier work.
A short description of data set [1]: Safety assessments of Example 4 study (adverse events, nasal irritation, vital signs, ECG). It counts as in vivo, human. How it is done: Sudy Goals. […] Secondary endpoints included adverse events (AEs), vital signs (heart rate, sitting blood pressure, and respiration rate), electrocardiogram (ECG), clinical laboratory changes and nasal irritation using the nasal irritation scale.
On dosing days, the order of assessments were ECG, vital signs, then PK blood collection when scheduled at the same nominal times. The target time of the PK blood collection was considered the most critical and if the collection was more than ±1 minute from the scheduled time for the first 60 minutes of collections or more than ±5 minutes for the scheduled time points thereafter, this was considered a protocol deviation. ECG and vital signs were collected within the 10 minute period before the nominal time of blood collections. At screening, admission, and discharge, ECG, and vital signs were checked once per day. […] Clinical laboratory measurements were repeated after the last PK blood draw prior to clinic discharge. AEs were assessed by spontaneous reports by subjects, by examination of the nasal mucosa, by measuring vital signs, ECG, and clinical laboratory parameters.
Safety Assessments. […] ECG and vital signs was performed within the 10 minute period before the nominal time for post-dose blood collections. AEs were recorded from the start of study drug administration until clinic discharge.

The nature of data set [2]: Intranasal naltrexone formulation experiments (solubility, crystallization, discoloration, osmolality). It counts as physicochemical. How it is done:
A series of experiments were performed to identify formulations of naltrexone which would make pharmaceutically appropriate intranasal products as disclosed herein.
A range of formulations were tested with the following observations. […] Several preparations were made at 30 mg/mL thereafter, which additionally contained fixed amounts of (dodecyl maltoside 0.25%) and NaCl (about 0.74%), and varying amounts of preservative (benzalkonium chloride, 0-0.02%) and stabilizing agent (EDTA, 0-0.3%). Crystallization behavior and discoloration were visually monitored. All of these formulations developed crystals when stored under refrigerated conditions. […] The 0.3% EDTA formulation appeared to resist yellowing for the longest period of time. Thereafter, a range of co-solvents were assessed for their potential to reduce crystallization of drug out of solution. Polyethylene glycol (PEG), propylene glycol, and benzyl alcohol were tested.

The conditions of data set [3]: cited from earlier work.
Setting [4] is: intranasal formulation with […] dodecyl maltoside.

In brackets after ≈: the same amount, converted by molar mass.

Regarding `CCCCCCCCCCCCO[C@@H]1O[C@H](CO)[C@@H](O[C@H]2O[C@H](CO)[C@@H](O)[C@H](O)[C@H]2O)[C@H](O)[C@H]1O` [Intravail®, 1-O-n-dodecyl-β-D-maltopyranoside], the “irritation in the rabbit eye model” value in the data set with rabbit eye is listed as “non-irritating”.

Compound `O=C1CC[C@@]2(O)[C@H]3Cc4ccc(O)c5c4[C@@]2(CCN3CC2CC2)[C@H]1O5` [naltrexone, 17-(cyclopropylmethyl)-4,5α-epoxy-3,14-dihydroxymorphinan-6-one] yielded a subjects with dizziness in data set [1] (5 subjects, regardless of severity or attribution) of 36%. Besides, the “subjects with AEs of the Nervous System Disorders SOC” value in data set [1] (7 subjects) is 50%. Further, the “subjects who experienced at least one AE” value in data set [1] (10 of 14 subjects, any dosing period, any relationship to drug) is given as 71%. The “discontinuation from the study due to AEs” value in data set [1] (hypertension, syncope, out-of-range pre-dose vital signs) is “Three subjects were discontinued”. In addition, in data set [1] (in vivo), the “severe AEs” value is on record as “No severe AEs were observed”. Besides, in data set [2] (room temperature, indicating incomplete dissolution), the “appearance of 50 mg/mL preparation” value was “cloudy”. Moreover, the solubility in data set [2] (thermodynamic from solid, ambient temperature, read-out: solubility limit in solution) was about 40 mg/mL (≈ 117 mM).

As for `CNS(=O)(=O)Cc1ccc2[nH]cc(CCN(C)C)c2c1` [sumatriptan], the “increase of total exposure (AUC)” value in data set [3] (intranasal formulation with […] dodecyl maltoside vs Imitrex nasal spray) is on record as 32%. Moreover, in data set [3] (setting [4]), the time to peak (Tmax) is 8 to 10 min and the “increase of maximum plasma concentration in comparison to Imitrex nasal spray” value is “almost four-fold”.

As usually defined, the solubility is how much of the substance goes into solution per volume. The Tmax is the time from dosing to the highest level.
